# Measurements as given in patent US20040029129A1, “Identification of essential genes in microorganisms” (priority 2001, published 2004).
# Tests used:
# [1] = tested on: Staphylococcus aureus cells containing antisense to the Beta subunit of DNA gyrase (S1M10000001F08); assay: Antibiotic potency in cells with xylose-induced antisense to the Beta subunit of DNA gyrase; assay type: cell-based; settings: 12 mM xylose versus 0 mM xylose; FIG. 10
# [2] = tested on: mixture of nine S. aureus strains overexpressing fabF, defB, folA, fabI, ileS, fusA, gyrB, murA, rpoB; assay: Selection of a strain overexpressing the target gene product from a mixture of nine overexpressing strains; assay type: cell-based; settings: folA gene; at least 60 colonies
# [3] = tested on: cells which overexpress the folA gene product; assay: Growth of cells overexpressing the folA gene in the presence of antibiotics; assay type: cell-based; settings: for resistance conferred by overexpression of the folA gene: FIG. 15
# [4] = tested on: cells which overexpress the defB gene product; assay: Growth of cells overexpressing the defB gene in the presence of antibiotics; assay type: cell-based; settings: FIG. 16
# [5] = tested on: overexpression of the fabI gene; assay: Growth of cells overexpressing the fabI gene in the presence of antibiotics; assay type: cell-based; settings: FIG. 14
# [6] = tested on: overexpression of the fabF gene (β keto-acyl carrier protein synthase); assay: Growth of cells overexpressing the fabF gene in the presence of antibiotics; assay type: cell-based; settings: FIG. 17
# [7] = tested on: Staphylococcus aureus cells overexpressing a gene product required for proliferation; assay: Growth of strains overexpressing a proliferation-required gene (XylT5 promoter) at elevated antibiotic concentrations; assay type: cell-based; settings: for resistance conferred by overexpression of the defB gene: defB (peptide deformylase) overexpressed, FIG. 16; for resistance conferred by overexpression of the fabF gene: fabF (β keto-acyl carrier protein synthase II) overexpressed, FIG. 17; for resistance conferred by overexpression of the fabI gene: fabI (enoyl-acyl carrier protein reductase) overexpressed, FIG. 14; for resistance conferred by overexpression of the folA gene: folA (dihydrofolate reductase) overexpressed, FIG. 15
# [8] = tested on: E. coli transformed with IPTG-inducible antisense clones; assay: Cell-based assay using antisense complementary to genes encoding ribosomal proteins (antibiotic sensitivity with and without IPTG); settings: with IPTG versus without IPTG; for Sensitivity to antibiotic of cells transcribing antisense to protein synthesis genes: AS-rplL, AS-rplW, AS-rplL/J and other protein synthesis gene clones
# [9] = tested on: Strains of Staphylococcus aureus containing plasmids encoding antisense nucleic acids; assay: Selective disappearance of amplification products of strains underexpressing the antibiotic's target (mixed antisense strains); assay type: cell-based; settings: rich medium
compound,measurement,setting,value
CO[C@@]1(NC(=O)Cc2cccs2)C(=O)N2C(C(=O)O)=C(COC(N)=O)CS[C@@H]21 [Cefoxitin],Potency in induced cells as compared to uninduced cells,[1],not significantly different
COc1cc(Cc2cnc(N)nc2N)cc(OC)c1OC [trimethoprim],Plasmids from colonies which grew in the presence of the antibiotic that contained the target gene,[2],81%
same,resistance conferred by overexpression of the folA gene,[3],confers resistance
same,growth of cells overexpressing the folA gene product in presence of antibiotic,"[3]; at appropriate concentrations of inducer, FIG. 13",able to grow at elevated concentrations
same,resistance conferred by overexpression of the defB gene,[4],does not confer resistance
same,Potency in induced cells as compared to uninduced cells,[1],not significantly different
same,resistance conferred by overexpression of the fabI gene,[5],does not confer resistance
same,resistance conferred by overexpression of the fabF gene,[6],does not confer resistance
same,resistance conferred by overexpression of the defB gene,[7],did not confer resistance
same,resistance conferred by overexpression of the fabF gene,[7],did not confer resistance
same,resistance conferred by overexpression of the fabI gene,[7],did not confer resistance
same,resistance conferred by overexpression of the folA gene,[7],conferred resistance
CCC[C@@H]1C[C@@H](C(=O)N[C@@H]([C@H]2O[C@H](SC)[C@H](O)[C@@H](O)[C@H]2O)[C@@H](C)O)N(C)C1 [Lincomycin],Potency in induced cells as compared to uninduced cells,[1],not significantly different
CN[C@H](CC(C)C)C(=O)N[C@H]1C(=O)N[C@@H](CC(N)=O)C(=O)N[C@H]2C(=O)N[C@H]3C(=O)N[C@H](C(=O)N[C@H](C(=O)O)c4cc(O)cc(O)c4-c4cc3ccc4O)[C@H](O)c3ccc(c(Cl)c3)Oc3cc2cc(c3O[C@@H]2O[C@H](CO)[C@@H](O)[C@H](O)[C@H]2O[C@H]2C[C@](C)(N)[C@H](O)[C@H](C)O2)Oc2ccc(cc2Cl)[C@H]1O [Vancomycin],Potency in induced cells as compared to uninduced cells,[1],not significantly different
CC(=O)O[C@H]1C[C@@]2(C)[C@@H](C[C@@H](O)[C@H]3[C@@]4(C)CC[C@@H](O)[C@@H](C)[C@@H]4CC[C@@]32C)/C1=C(\CCC=C(C)C)C(=O)O [Fusidic acid],Potency in induced cells as compared to uninduced cells,[1],not significantly different
CCn1cc(C(=O)O)c(=O)c2ccc(C)nc21 [Nalidixic acid],Sensitivity to antibiotic of cells transcribing antisense to protein synthesis genes,[8],does not show increased sensitivity
C/C=C/C/C=C/CCC(=O)[C@H]1O[C@H]1C(N)=O [cerulenin],IC50,[9]; read-out: IC50 (middle concentration used),9 µg/mL
same,resistance conferred by overexpression of the folA gene,[3],does not confer resistance
same,resistance conferred by overexpression of the defB gene,[4],does not confer resistance
same,resistance conferred by overexpression of the fabI gene,[5],does not confer resistance
same,resistance conferred by overexpression of the fabF gene,[6],conferred resistance
same,resistance conferred by overexpression of the defB gene,[7],did not confer resistance
same,resistance conferred by overexpression of the fabF gene,[7],conferred resistance
same,resistance conferred by overexpression of the fabI gene,[7],did not confer resistance
same,resistance conferred by overexpression of the folA gene,[7],did not confer resistance
CO[C@@H]1[C@@H](OC(N)=O)[C@@H](O)[C@H](Oc2ccc3c(O)c(NC(=O)c4ccc(O)c(CC=C(C)C)c4)c(=O)oc3c2C)OC1(C)C [novobiocin],Potency in induced cells as compared to uninduced cells,[1],significantly different
NC[C@H]1O[C@H](O[C@H]2[C@H](O)[C@@H](O[C@H]3O[C@H](CO)[C@@H](O)[C@H](N)[C@H]3O)[C@H](N)C[C@@H]2N)[C@H](N)C[C@@H]1O [Tobramycin],Potency in induced cells as compared to uninduced cells,[1],not significantly different
C/C(=C\C(=O)OCCCCCCCCC(=O)O)C[C@@H]1OC[C@H](C[C@@H]2O[C@H]2[C@@H](C)[C@H](C)O)[C@@H](O)[C@H]1O [mupriocin],IC50 (middle concentration used),[9],8.6 µg/mL
Oc1cc(Cl)ccc1Oc1ccc(Cl)cc1Cl [triclosan],resistance conferred by overexpression of the folA gene,[3],does not confer resistance
same,resistance conferred by overexpression of the defB gene,[4],does not confer resistance
same,resistance conferred by overexpression of the fabI gene,[5],confers resistance
same,resistance conferred by overexpression of the fabF gene,[6],does not confer resistance
same,resistance conferred by overexpression of the defB gene,[7],did not confer resistance
same,resistance conferred by overexpression of the fabF gene,[7],did not confer resistance
same,resistance conferred by overexpression of the fabI gene,[7],conferred resistance
same,resistance conferred by overexpression of the folA gene,[7],did not confer resistance
CC[C@H]1OC(=O)[C@H](C)[C@@H](O[C@H]2C[C@@](C)(OC)[C@@H](O)[C@H](C)O2)[C@H](C)[C@@H](O[C@@H]2O[C@H](C)C[C@H](N(C)C)[C@H]2O)[C@](C)(O)C[C@@H](C)C(=O)[C@H](C)[C@@H](O)[C@]1(C)O [Erythromycin],Sensitivity to antibiotic of cells transcribing antisense to genes not involved in protein synthesis,"[8]; AS-atpB/E, AS-visC, AS-elaD, AS-yohH",do not
same,Sensitivity to antibiotic of cells transcribing antisense to protein synthesis genes,[8],increased sensitivity
CO/N=C(\C(=O)N[C@@H]1C(=O)N2C(C(=O)O)=C(COC(C)=O)CS[C@H]12)c1csc(N)n1 [Cefotaxime],Potency in induced cells as compared to uninduced cells,[1],not significantly different
